Read-outs that look alike come from different tables or passages of the source.
Experiments:
DUXB11 cell lines [1] = type: cell-based, Chinese hamster; details: for impact on afucosylation: 3 L bioreactor, harvest D13; for Afucosylation (%) / Titer: MPA supplementation Day 5, DUXB11
Description: FIG. 8. Impact of the timing of supplementation with Mycophenolic acid (MPA) on afucosylation of DUXB11 cell line in 3 L bioreactors (A, B, C, and D) with the same seed density following the platform process. When the viable cell density (VCD) reached its peak (Day 5 in the study), fixed 5 μM of MPA was added in bioreactor A. At the same time, MPA was added in bioreactor B based on the VCD value to make sure MPA per cell is the same as the platform process to eliminate the possible impact of different cell growth. The next day (one day past peak VCD day, D6 in this study), fixed 5 μM of MPA was added in bioreactor C and MPA was added in bioreactor D based on its D6 VCD value to make sure MPA per cell is the same as the platform process to eliminate the possible impact of different cell growth. All bioreactors were harvested on D13. The filtered supernatant samples were analyzed for titer and N-glycan analysis for afucosylation level.
DUXB11 cell lines were cultured in 3 L bioreactor respectively following the platform process. On day 6, various amounts of MPA were dosed (0 μM and 5 μM). After dosing MPA, bioreactors were kept running until they were harvested on day 13. Filtered supernatant samples were analyzed for titer and N-glycan analysis for afucosylation level.
The culture conditions are described in FIG. 8. […] In addition, afucosylation level was increased with peak VCD day MPA addition (fixed 5 μM MPA vs. VCD based MPA addition).
The effect of temperature shift and supplementation with MPA is provided in FIG. 12, FIG. 13, FIG. 14A, and FIG. 14B and Table 11 below.

DUXB11 cell lines [2] = type: cell-based, Chinese hamster; details: for Cell viability (%): Chinese hamster, 3 days
Description: FIG. 7A and FIG. 7B. Impact of Mycophenolic acid (MPA) on afucosylation in cell lines (FIG. 7A and FIG. 7B showing two different cell lines) derived from DUXB11. The cells were cultured in 3 L bioreactor respectively for 7 days following the platform process. On day 7, the cells were divided into several 1 L shake flasks with 200 mL working volume and then dosed with various amounts of MPA (0 μM, […], 10 μM, 30 μM). After dosing MPA, shake flask fed-batch is conducted until day-3 harvest. Filtered supernatant samples were analyzed for titer and N-glycan analysis for afucosylation level.
DUXB11 cell lines (cell line #1 and #2) were cultured in 3 L bioreactor respectively for 7 days following the platform process. On day 7, the cells were divided into several 1 L shake flasks with 200 mL working volume and then dosed with various amounts of MPA (0 μM, 1 μM, 10 μM, 30 μM). After dosing MPA, shake flask fed-batch is conducted until day-3 harvest. Filtered supernatant samples were analyzed for titer and N-glycan analysis for afucosylation level. […] However, the titer was decreased (side effect) (see Table 8 below and FIG. 7A and FIG. 7B). […] The impact on viability became much more significant in bioreactor process (see Example 9 below).

BIIB603 cell line = experiment: BIIB603 shake flask fed-batch with MPA or acMPAG: afucosylation (N-glycan analysis); type: cell-based; details: BIIB603 shake flasks; MPA 20, 40 μM or acMPAG 20 μM dosed day 6; 4 more days at 31 °C; FIG. 18
Description: (§1) FIG. 18. Impact of Mycophenolic acid (MPA) and Mycophenolic acid acyl glucuronide (acMPAG) on afucosylation in BIIB603 cell line. The cells were scaled up to 5 L BR for fed-batch production process. On day 5, temperature was shifted from 37° C. to 31° C. On day 6, cell culture was drained from the bioreactor and divided into several 500 mL shake flasks with 100 mL working volume and then dosed with various amounts of MPA (0 μM, 20 μM, 40 μM) or acMPAG (20 μM) in duplicates. After dosing, the shake flasks were cultured another 4 days at 31° C., 5% CO2 and 150 rpm with fed-batch process and then harvested. The supernatant was sent for PQ assay (N-glycan analysis) for afucosylation level.
as §1, with “BIIB603” for “FIG. 18. Impact of Mycophenolic acid (MPA) and Mycophenolic acid acyl glucuronide (acMPAG) on afucosylation in BIIB603”, “line was” for “line. The cells were”

FcgRIII a = experiment: FcgRIIIa binding of product after insulin and MPA supplement on DUXB11
DUXB11 cell line = experiment: DUXB11 3 L bioreactor with insulin additions and fixed MPA: afucosylation, glycosylation map, titer; type: cell-based, Chinese hamster; parameters: M3F / Afucosyl / G0 / G0F / MS / G1 + G1′ / G1F + G1F′ / M6 / G2 / G2F: unit not given here; details: for Afucosyl / G0 / G0F / G1 + G1′ / G1F + G1F′ / G2 / G2F / M3F / M6 / MS: with MPA, DUXB11; for Afucosylation (%) / Titer: fixed 5 μM MPA, DUXB11 3 L bioreactor
Description: FIG. 11. […] Fixed 5 μM of MPA was added on Day 9 in all bioreactors and harvested on the same day. Filtered supernatant samples were analyzed for titer and N-glycan analysis for afucosylation level.
The culture conditions are described in FIG. 11.

[3] = 1 μM MPA dosed day 7, DUXB11 shake flask, harvest 3 days after dosing
[4] = 10 μM MPA dosed day 7, DUXB11 shake flask, harvest 3 days after dosing
[5] = 30 μM MPA dosed day 7, DUXB11 shake flask, harvest 3 days after dosing
[6] = increasing MPA dosing concentration (1, 10, 30 μM), shake flask

Molecule: COc1c(C)c2c(c(O)c1C/C=C(\C)CCC(=O)O)C(=O)OC2 [MPA, mycophenolic acid]
- impact on afucosylation (DUXB11 cell lines [1]; MPA added on a different day than peak VCD (one day past, D6)): non-significant impact
- impact on afucosylation (DUXB11 cell lines [1]; MPA added on the day of peak VCD (Day 5), fixed 5 μM or VCD based): significant impact
- Afucosylation (%) (DUXB11 cell lines [1]; temperature 35 to 30 °C): 11.9%
- Titer (DUXB11 cell lines [1]; temperature 35 to 30 °C): 1.5 g/L
- Afucosylation (%) (DUXB11 cell lines [1]; temperature 35 to 33 °C): 10.7%
- Titer (DUXB11 cell lines [1]; temperature 35 to 33 °C): 1.8 g/L
- impact on viability (DUXB11 cell lines [2]): not significant
- Afucosylation (%) (DUXB11 cell lines [2]; [3]): 3.85%
- Titer (DUXB11 cell lines [2]; [3]): 0.136 g/L
- Afucosylation (%) (DUXB11 cell lines [2]; [4]): 4.9%
- Titer (DUXB11 cell lines [2]; [4]): 0.106 g/L
- Afucosylation (%) (DUXB11 cell lines [2]; [5]): 4.4%
- Titer (DUXB11 cell lines [2]; [5]): 0.105 g/L
- Cell viability (%) (DUXB11 cell lines [2]; 1 μM): 62%
- Cell viability (%) (DUXB11 cell lines [2]; 10 μM): 61%
- Cell viability (%) (DUXB11 cell lines [2]; 30 μM): 62%
- Titer (DUXB11 cell lines [2]; [6]): decreased
- afucosylation level (DUXB11 cell lines [2]; [6]): increase
- afucosylation level (BIIB603 cell line): increase in the afucosylation level

Molecule: COc1c(C)c2c(c(O)c1C/C=C(\C)CCC(=O)O[C@@H]1O[C@H](C(=O)O)[C@@H](O)[C@H](O)[C@H]1O)C(=O)OC2 [acMPAG, mycophenolic acid acyl glucuronide]
- afucosylation level (BIIB603 cell line): increased the afucosylation level to similar extent

Molecule: insulin
- FcgRIII a binding (FcgRIII a; 2.5 mg/L ins in feed 1, with MPA): 60
- FcgRIII a binding (FcgRIII a; 10 mg/L ins in feed 1, with MPA): 71
- FcgRIII a binding (FcgRIII a; 30 mg/L ins in feed 1, with MPA): 100
- FcgRIII a binding (FcgRIII a; 60 mg/L ins in feed 1, with MPA): 100
- Afucosyl (DUXB11 cell line; 2.5 mg/L ins in feed 1): 4.9
- G0 (DUXB11 cell line; 2.5 mg/L ins in feed 1): 3.9
- G0F (DUXB11 cell line; 2.5 mg/L ins in feed 1): 68.1
- G1 + G1′ (DUXB11 cell line; 2.5 mg/L ins in feed 1): 0.9
- G1F + G1F′ (DUXB11 cell line; 2.5 mg/L ins in feed 1): 20.2
- G2 (DUXB11 cell line; 2.5 mg/L ins in feed 1): 0.0
- G2F (DUXB11 cell line; 2.5 mg/L ins in feed 1): 1.8
- M3F (DUXB11 cell line; 2.5 mg/L ins in feed 1): 1.0
- M6 (DUXB11 cell line; 2.5 mg/L ins in feed 1): 0.90
- MS (DUXB11 cell line; 2.5 mg/L ins in feed 1): 2.2
- Afucosyl (DUXB11 cell line; 10 mg/L ins in feed 1): 6.2
- G0 (DUXB11 cell line; 10 mg/L ins in feed 1): 5.1
- G0F (DUXB11 cell line; 10 mg/L ins in feed 1): 64.9
- G1 + G1′ (DUXB11 cell line; 10 mg/L ins in feed 1): 1.1
- G1F + G1F′ (DUXB11 cell line; 10 mg/L ins in feed 1): 21.7
- G2 (DUXB11 cell line; 10 mg/L ins in feed 1): 0.0
- G2F (DUXB11 cell line; 10 mg/L ins in feed 1): 2.3
- M3F (DUXB11 cell line; 10 mg/L ins in feed 1): 0.9
- M6 (DUXB11 cell line; 10 mg/L ins in feed 1): 0.9
- MS (DUXB11 cell line; 10 mg/L ins in feed 1): 2.2
- G0 (DUXB11 cell line; 30 mg/L ins in feed 1): 6.7
- G0F (DUXB11 cell line; 30 mg/L ins in feed 1): 62.5
- G1 + G1′ (DUXB11 cell line; 30 mg/L ins in feed 1): 1.3
- G1F + G1F′ (DUXB11 cell line; 30 mg/L ins in feed 1): 21.1
- G2 (DUXB11 cell line; 30 mg/L ins in feed 1): 0.0
- G2F (DUXB11 cell line; 30 mg/L ins in feed 1): 2.3
- M3F (DUXB11 cell line; 30 mg/L ins in feed 1): 0.9
- M6 (DUXB11 cell line; 30 mg/L ins in feed 1): 1.1
- MS (DUXB11 cell line; 30 mg/L ins in feed 1): 2.4
- G0 (DUXB11 cell line; 60 mg/L ins in feed 1): 6.4
- G0F (DUXB11 cell line; 60 mg/L ins in feed 1): 61.4
- G1 + G1′ (DUXB11 cell line; 60 mg/L ins in feed 1): 1.4
- G1F + G1F′ (DUXB11 cell line; 60 mg/L ins in feed 1): 22.9
- G2 (DUXB11 cell line; 60 mg/L ins in feed 1): 0.0
- G2F (DUXB11 cell line; 60 mg/L ins in feed 1): 2.6
- M3F (DUXB11 cell line; 60 mg/L ins in feed 1): 0.8
- M6 (DUXB11 cell line; 60 mg/L ins in feed 1): 0.9
- MS (DUXB11 cell line; 60 mg/L ins in feed 1): 2.5
- afucosylation (DUXB11 cell line; increasing insulin concentration with same MPA supplementation, fed-batch culture): increased afucosylation
- Afucosylation (%) (DUXB11 cell line; total insulin added 11 mg/L): 4.9%
- Titer (DUXB11 cell line; total insulin added 11 mg/L): 2.3 g/L
- Afucosylation (%) (DUXB11 cell line; total insulin added 13 mg/L): 6.2%
- Titer (DUXB11 cell line; total insulin added 13 mg/L): 2.6 g/L

Source: patent publication US9944968B2, “Control of protein glycosylation by culture medium supplementation and cell culture process parameters” (Biogen MA Inc., priority 2013, dated 2018)
